PubChem BioAssay (NCI)
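How tested: cells in 96-well plates exposed to compound for 48 hours at five concentrations. The concentration for 50% growth inhibition is given as GI50. TGI is the concentration that stops growth completely.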

Tests used:
Test in all cases: growth of human tumour cells (NCI), 48 h
786-0 renal = system: 786-0 renal
SR leukemia = system: SR leukemia
DU-145 prostate = system: DU-145 prostate
HCT-15 colon = system: HCT-15 colon
TK-10 renal = system: TK-10 renal
NCI-H460 lung = system: NCI-H460 lung
COLO 205 colon = system: COLO 205 colon
NCI/ADR-RES ovarian = system: NCI/ADR-RES ovarian
CAKI-1 renal = system: CAKI-1 renal
LOX IMVI melanoma = system: LOX IMVI melanoma
UO-31 renal = system: UO-31 renal
NCI-H522 lung = system: NCI-H522 lung
HOP-62 NSCLC = system: HOP-62 NSCLC
MDA-MB-231 breast = system: MDA-MB-231 breast
U251 CNS = system: U251 CNS
K-562 leukemia = system: K-562 leukemia
SF-295 CNS = system: SF-295 CNS
A498 renal = system: A498 renal
SK-MEL-28 melanoma = system: SK-MEL-28 melanoma
ACHN renal = system: ACHN renal
SNB-75 CNS = system: SNB-75 CNS
NCI-H226 lung = system: NCI-H226 lung
SK-MEL-5 melanoma = system: SK-MEL-5 melanoma
RXF 393 renal = system: RXF 393 renal
T-47D breast = system: T-47D breast
A549 NSCLC = system: A549 NSCLC
MDA-MB-435 = system: MDA-MB-435
HCT-116 colon = system: HCT-116 colon
OVCAR-5 ovarian = system: OVCAR-5 ovarian
MALME-3M melanoma = system: MALME-3M melanoma
OVCAR-3 ovarian = system: OVCAR-3 ovarian
HOP-92 NSCLC = system: HOP-92 NSCLC
IGROV1 ovarian = system: IGROV1 ovarian
HCC-2998 colon = system: HCC-2998 colon
OVCAR-4 ovarian = system: OVCAR-4 ovarian
HT29 colon = system: HT29 colon
KM12 colon = system: KM12 colon
HS 578T breast = system: HS 578T breast
SN12C renal = system: SN12C renal
NCI-H23 lung = system: NCI-H23 lung
RPMI-8226 leukemia = system: RPMI-8226 leukemia
HL-60(TB) leukemia = system: HL-60(TB) leukemia
M14 melanoma = system: M14 melanoma
BT-549 breast = system: BT-549 breast
SW-620 colon = system: SW-620 colon
UACC-257 melanoma = system: UACC-257 melanoma
CCRF-CEM leukemia = system: CCRF-CEM leukemia
PC-3 prostate = system: PC-3 prostate
UACC-62 melanoma = system: UACC-62 melanoma
SK-OV-3 ovarian = system: SK-OV-3 ovarian
EKVX NSCLC = system: EKVX NSCLC
MCF7 breast = system: MCF7 breast
OVCAR-8 ovarian = system: OVCAR-8 ovarian
SK-MEL-2 melanoma = system: SK-MEL-2 melanoma
MOLT-4 leukemia = system: MOLT-4 leukemia
SF-539 CNS = system: SF-539 CNS
SNB-19 CNS = system: SNB-19 CNS
SF-268 CNS = system: SF-268 CNS

In the case of `O=c1oc2ccc(Br)cc2c(=O)n1-c1ccc(Br)cc1F`, the GI50 (786-0 renal) is reported as 2.06 µM, the TGI (786-0 renal) is reported as 4.91 µM and the GI50 (SR leukemia) is reported as 0.712 µM. The TGI (SR leukemia) was 6.88 µM, the GI50 (DU-145 prostate) was 1.14 µM and the TGI (DU-145 prostate) was 21.4 µM. For the same compound, the GI50 (HCT-15 colon) was 0.733 µM, the TGI (HCT-15 colon) was 7.02 µM and the GI50 (TK-10 renal) was 2.86 µM. For the same compound, the TGI (TK-10 renal) was 12.8 µM, the GI50 (NCI-H460 lung) was 0.511 µM and the TGI (NCI-H460 lung) was 11.1 µM. For the same compound, the GI50 (COLO 205 colon) was 3.72 µM, the TGI (COLO 205 colon) was 14 µM and the GI50 (NCI/ADR-RES ovarian) was 0.553 µM. For the same compound, the TGI (NCI/ADR-RES ovarian) was 4.33 µM, the GI50 (CAKI-1 renal) was 0.507 µM and the TGI (CAKI-1 renal) was 3.93 µM. It also gave a GI50 (LOX IMVI melanoma) of 0.469 µM, a TGI (LOX IMVI melanoma) of 2.54 µM and a GI50 (UO-31 renal) of 0.442 µM. It also gave a TGI (UO-31 renal) of 2.48 µM, a GI50 (NCI-H522 lung) of 0.351 µM and a TGI (NCI-H522 lung) of 2.92 µM. It also gave a GI50 (HOP-62 NSCLC) of 1.35 µM, a TGI (HOP-62 NSCLC) of 4.79 µM and a GI50 (MDA-MB-231 breast) of 0.551 µM. The TGI (MDA-MB-231 breast) was 4.81 µM, the GI50 (U251 CNS) was 0.725 µM and the TGI (U251 CNS) was 9.82 µM. The GI50 (K-562 leukemia) was 0.465 µM, the TGI (K-562 leukemia) was greater than 100 µM and the GI50 (SF-295 CNS) was 1.49 µM. It also gave a TGI (SF-295 CNS) of 3.29 µM, a GI50 (A498 renal) of 0.245 µM and a TGI (A498 renal) of 0.774 µM. It also gave a GI50 (SK-MEL-28 melanoma) of 0.392 µM, a TGI (SK-MEL-28 melanoma) of 1.95 µM and a GI50 (ACHN renal) of 0.933 µM. For the same compound, the TGI (ACHN renal) was 8.46 µM, the GI50 (SNB-75 CNS) was 0.289 µM and the TGI (SNB-75 CNS) was 2.45 µM. For the same compound, the GI50 (NCI-H226 lung) was 1.26 µM, the TGI (NCI-H226 lung) was 4.72 µM and the GI50 (SK-MEL-5 melanoma) was 0.269 µM. It also gave a TGI (SK-MEL-5 melanoma) of 0.853 µM, a GI50 (RXF 393 renal) of 0.68 µM and a TGI (RXF 393 renal) of 3.73 µM. The GI50 (T-47D breast) was 0.341 µM, the TGI (T-47D breast) was 3.84 µM and the GI50 (A549 NSCLC) was 2.05 µM. The TGI (A549 NSCLC) was greater than 35.5 µM, the GI50 (MDA-MB-435) was 0.64 µM and the TGI (MDA-MB-435) was 8.87 µM. The GI50 (HCT-116 colon) was 0.555 µM, the TGI (HCT-116 colon) was 2.1 µM and the GI50 (OVCAR-5 ovarian) was 3.1 µM. It also gave a TGI (OVCAR-5 ovarian) of 48.1 µM, a GI50 (MALME-3M melanoma) of 0.436 µM and a TGI (MALME-3M melanoma) of 2.55 µM. It also gave a GI50 (OVCAR-3 ovarian) of 0.477 µM, a TGI (OVCAR-3 ovarian) of 6.62 µM and a GI50 (HOP-92 NSCLC) of 0.191 µM. For the same compound, the TGI (HOP-92 NSCLC) was 0.683 µM, the GI50 (IGROV1 ovarian) was 0.337 µM and the TGI (IGROV1 ovarian) was 11.9 µM. For the same compound, the GI50 (HCC-2998 colon) was 2.47 µM, the TGI (HCC-2998 colon) was 8.04 µM and the GI50 (OVCAR-4 ovarian) was 0.539 µM. The TGI (OVCAR-4 ovarian) was greater than 100 µM, the GI50 (HT29 colon) was 3.09 µM and the TGI (HT29 colon) was 12.7 µM. For the same compound, the GI50 (KM12 colon) was 2.06 µM, the TGI (KM12 colon) was 4.93 µM and the GI50 (HS 578T breast) was 0.38 µM. For the same compound, the TGI (HS 578T breast) was 3.79 µM, the GI50 (SN12C renal) was 0.458 µM and the TGI (SN12C renal) was 3.62 µM. The GI50 (NCI-H23 lung) was 0.369 µM, the TGI (NCI-H23 lung) was 2.65 µM and the GI50 (RPMI-8226 leukemia) was 0.264 µM. It also gave a TGI (RPMI-8226 leukemia) of 1.06 µM, a GI50 (HL-60(TB) leukemia) of 0.538 µM and a TGI (HL-60(TB) leukemia) of 2.53 µM. The GI50 (M14 melanoma) was 0.816 µM, the TGI (M14 melanoma) was 3.59 µM and the GI50 (BT-549 breast) was 0.452 µM. It also gave a TGI (BT-549 breast) of 2.2 µM, a GI50 (SW-620 colon) of 1.22 µM and a TGI (SW-620 colon) of 11.2 µM. It also gave a GI50 (UACC-257 melanoma) of 0.64 µM, a TGI (UACC-257 melanoma) of 3.76 µM and a GI50 (CCRF-CEM leukemia) of 1 µM. For the same compound, the TGI (CCRF-CEM leukemia) was 4.95 µM, the GI50 (PC-3 prostate) was 0.864 µM and the TGI (PC-3 prostate) was 6.77 µM. The GI50 (UACC-62 melanoma) was 0.223 µM, the TGI (UACC-62 melanoma) was 0.772 µM and the GI50 (SK-OV-3 ovarian) was 0.56 µM. The TGI (SK-OV-3 ovarian) was 4.97 µM, the GI50 (EKVX NSCLC) was 1.51 µM and the TGI (EKVX NSCLC) was 8.24 µM. It also gave a GI50 (MCF7 breast) of 1.07 µM, a TGI (MCF7 breast) of 8.17 µM and a GI50 (OVCAR-8 ovarian) of 1.22 µM. The TGI (OVCAR-8 ovarian) was 9.14 µM, the GI50 (SK-MEL-2 melanoma) was 0.371 µM and the TGI (SK-MEL-2 melanoma) was 1.88 µM. It also gave a GI50 (MOLT-4 leukemia) of 1.31 µM, a TGI (MOLT-4 leukemia) of 4.16 µM and a GI50 (SF-539 CNS) of 0.501 µM. It also gave a TGI (SF-539 CNS) of 3.54 µM, a GI50 (SNB-19 CNS) of 0.378 µM and a TGI (SNB-19 CNS) of 46.7 µM. The GI50 (SF-268 CNS) was 0.688 µM and the TGI (SF-268 CNS) was 7.1 µM.
With `CCCc1cn2c(/C=N/N=C(N)N)c(-c3c(OC)ccc(OC)c3[N+](=O)[O-])nc2s1` the TGI (786-0 renal) was 28.1 µM, the TGI (SR leukemia) was 4.34 µM and the TGI (DU-145 prostate) was 35.6 µM. For the same compound, the TGI (HCT-15 colon) was 37 µM, the TGI (TK-10 renal) was 41 µM and the TGI (NCI-H460 lung) was 41.6 µM. For the same compound, the TGI (COLO 205 colon) was 6.42 µM, the TGI (NCI/ADR-RES ovarian) was 64.6 µM and the TGI (CAKI-1 renal) was 30.6 µM. For the same compound, the TGI (LOX IMVI melanoma) was 9.13 µM, the TGI (UO-31 renal) was 45 µM and the TGI (NCI-H522 lung) was 34.2 µM. For the same compound, the TGI (HOP-62 NSCLC) was 31.1 µM, the TGI (MDA-MB-231 breast) was 16.2 µM and the TGI (U251 CNS) was 18.7 µM. The TGI (K-562 leukemia) was 11.5 µM, the TGI (SF-295 CNS) was 35.7 µM and the TGI (A498 renal) was 44.6 µM. For the same compound, the TGI (SK-MEL-28 melanoma) was 19.4 µM, the TGI (ACHN renal) was 35.6 µM and the TGI (SNB-75 CNS) was greater than 59.1 µM. For the same compound, the TGI (NCI-H226 lung) was 38.3 µM, the TGI (SK-MEL-5 melanoma) was 32.3 µM and the TGI (RXF 393 renal) was 41.2 µM. The TGI (T-47D breast) was 24.3 µM, the TGI (A549 NSCLC) was 51.3 µM and the TGI (MDA-MB-435) was 19.9 µM. For the same compound, the TGI (HCT-116 colon) was 22.2 µM, the TGI (OVCAR-5 ovarian) was 34.5 µM and the TGI (MALME-3M melanoma) was 30 µM. It also gave a TGI (OVCAR-3 ovarian) of 18.2 µM, a TGI (HOP-92 NSCLC) of 47 µM and a TGI (IGROV1 ovarian) of 34.8 µM. It also gave a TGI (HCC-2998 colon) of 4.59 µM, a TGI (OVCAR-4 ovarian) of 66.2 µM and a TGI (HT29 colon) greater than 38.5 µM. The TGI (KM12 colon) was 11.6 µM, the TGI (HS 578T breast) was 41.9 µM and the TGI (SN12C renal) was 31.7 µM. The TGI (NCI-H23 lung) was 26.1 µM, the TGI (RPMI-8226 leukemia) was 8.7 µM and the TGI (HL-60(TB) leukemia) was 27.6 µM. It also gave a TGI (M14 melanoma) of 21.3 µM, a TGI (BT-549 breast) of 35.6 µM and a TGI (SW-620 colon) of 32.9 µM. For the same compound, the TGI (UACC-257 melanoma) was 28.4 µM, the TGI (CCRF-CEM leukemia) was 8.43 µM and the TGI (PC-3 prostate) was 26.5 µM. It also gave a TGI (UACC-62 melanoma) of 25.4 µM, a TGI (SK-OV-3 ovarian) of 43.3 µM and a TGI (EKVX NSCLC) of 44.8 µM. For the same compound, the TGI (MCF7 breast) was 20.8 µM, the TGI (OVCAR-8 ovarian) was 47.3 µM and the TGI (SK-MEL-2 melanoma) was 46.5 µM. For the same compound, the TGI (MOLT-4 leukemia) was 4.19 µM, the TGI (SF-539 CNS) was 36.9 µM and the TGI (SNB-19 CNS) was 49.9 µM. For the same compound, the TGI (SF-268 CNS) was 47.2 µM.
